Laboratory results published in the NIST ThermoML archive (doi:10.1016/j.jct.2008.10.010).

Assay: molar heat capacity at constant pressure; xn = mol fraction of the nth substance listed
Conditions: 101.3 kPa, Liquid, Small sample (50 mg) DSC

CCC(C)(C)O [2-methylbutan-2-ol] + CCCCCCC
molar heat capacity at constant pressure [J/K/mol]
Conditions | 309.15 K | 310.16 K | 311.14 K | 312.15 K | 313.16 K | 314.14 K | 315.15 K | 316.16 K | 317.14 K | 318.15 K
x1 = 0.0061 | – | 229.11 | 229.41 | 229.87 | 230.16 | 230.54 | 231.04 | 231.41 | 231.74 | 232.22
x1 = 0.0249 | – | 232.84 | 233.01 | 233.27 | 233.44 | 233.76 | 234.1 | 234.24 | 234.45 | 234.79
x1 = 0.0494 | – | 238.76 | 238.96 | 239.19 | 239.44 | 239.64 | 239.85 | 240.04 | 240.17 | 240.39
x1 = 0.1 | – | 246.57 | 246.82 | 247.28 | 247.62 | 247.94 | 248.26 | 248.61 | 248.85 | 249.22
x1 = 0.1547 | – | 251.57 | 252.06 | 252.56 | 253.04 | 253.52 | 254.01 | 254.44 | 254.85 | 255.3
x1 = 0.1999 | – | 254.63 | 255.2 | 255.82 | 256.43 | 257.01 | 257.6 | 258.06 | 258.58 | 259.15
x1 = 0.2993 | – | 259.26 | 259.96 | 260.68 | 261.51 | 262.2 | 262.9 | 263.57 | 264.25 | 264.95
x1 = 0.4051 | – | 261.91 | 262.71 | 263.58 | 264.53 | 265.3 | 266.17 | 266.93 | 267.74 | –
x1 = 0.4986 | 262.32 | 263.33 | 264.23 | 265.2 | 266.22 | 267.11 | 268.03 | 268.88 | 269.71 | –
x1 = 0.5981 | 262.83 | 263.88 | 264.84 | 265.84 | 266.9 | 267.83 | 268.84 | 269.72 | 270.72 | –
x1 = 0.7015 | 262.76 | 263.9 | 264.89 | 265.94 | 267.08 | 268.09 | 269.07 | 270.07 | 271.01 | –
x1 = 0.8023 | 261.98 | 263.1 | 264.11 | 265.15 | 266.27 | 267.27 | 268.34 | 269.26 | 270.34 | –
x1 = 0.9139 | 260.52 | 261.67 | 262.65 | 263.76 | 264.91 | 265.99 | 267.02 | 268 | 269.05 | –
x1 = 0.9609 | 259.67 | 260.83 | 261.81 | 262.89 | 264 | 265.01 | 266.09 | 267.03 | 268.07 | –
